From patent publication US6441195B1, “Substituted sulphonylamino(thio) carbonyl compounds” (Bayer Aktiengesellschaft, priority 1995, dated 2002)

How the values were obtained:
Type in all cases: in vivo
weeds [1] = experiment: Pre-emergence test (greenhouse), activity against weeds; details: in words
In short: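 Compound formulated in acetone with alkylaryl polyglycol ether emulsifier, diluted in water, and watered onto soil about 24 h after sowing, dosed by application rate per unit area. Damage rated after three weeks as % versus untreated control (0% = no action).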

weeds [2] = experiment: Post-emergence test (greenhouse), activity against weeds; details: in words
In short: (§1)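 Post-emergence spray of plants 5-15 cm tall at the desired rate in 2000 l water/ha; active compound formulated in acetone with alkylaryl polyglycol ether emulsifier, diluted in water. Damage rated after three weeks as % versus untreated control (0% = no action).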

Maize [3] = experiment: Post-emergence test/greenhouse, Maize; details: greenhouse, after three weeks
Protocol: Solvent: 5 parts by weight of acetone
Emulsifier: 1 part by weight of alkylaryl polyglycol ether
To produce a suitable preparation of active compound, 1 part by weight of active compound is mixed with the stated amount of solvent, the stated amount of emulsifier is added and the concentrate is diluted with water to the desired concentration.
Test plants which have a height of 5-15 cm are sprayed with the preparation of the active compound in such a way as to apply the particular amounts of active compound desired per unit area. The concentration of the spray liquor is chosen so that the particular amounts of active compound desired are applied in 2000 l of water/ha.
After three weeks, the degree of damage to the plants is rated in % damage in comparison to the development of the untreated control.
0%=no action (like untreated control)

Digitaria = experiment: Post-emergence test/greenhouse, Digitaria; details: greenhouse, after three weeks
In short: as §1

Echinochloa = experiment: Post-emergence test/greenhouse, Echinochloa; details: greenhouse, after three weeks
In short: as §1

Lolium [4] = experiment: Post-emergence test/greenhouse, Lolium; details: greenhouse, after three weeks
In short: as §1

Sorghum [5] = experiment: Post-emergence test/greenhouse, Sorghum; details: greenhouse, after three weeks
In short: as §1

Amaranthus = experiment: Post-emergence test/greenhouse, Amaranthus; details: greenhouse, after three weeks
In short: as §1

Gallium = experiment: Post-emergence test/greenhouse, Gallium; details: greenhouse, after three weeks
In short: as §1

Matricaria [6] = experiment: Post-emergence test/greenhouse, Matricaria; details: greenhouse, after three weeks
In short: as §1

Stellaria = experiment: Post-emergence test/greenhouse, Stellaria; details: greenhouse, after three weeks
In short: as §1

Maize [7] = experiment: Pre-emergence test/Greenhouse, Maize; details: in vivo
In short: (§2)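 Seeds sown in normal soil were watered about 24 h later with an aqueous emulsion of compound (solvent plus emulsifier), keeping water volume per area constant so dose is set by application rate per unit area. Damage was rated after three weeks as % versus untreated control (0% = no action).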

Soya beans = experiment: Pre-emergence test/Greenhouse, Soya beans; details: in vivo
In short: as §2

Lolium [8] = experiment: Pre-emergence test/Greenhouse, Lolium; details: after three weeks
In short: as §2

Poa = experiment: Pre-emergence test/Greenhouse, Poa; details: after three weeks
In short: as §2

Sorghum [9] = experiment: Pre-emergence test/Greenhouse, Sorghum; details: after three weeks
In short: as §2

Ambrosia = experiment: Pre-emergence test/Greenhouse, Ambrosia; details: after three weeks
In short: as §2

Matricaria [10] = experiment: Pre-emergence test/Greenhouse, Matricaria; details: after three weeks
In short: as §2

Solanum = experiment: Pre-emergence test/Greenhouse, Solanum; details: after three weeks
In short: as §2

SMILES: COCc1nn(C(=O)NS(=O)(=O)c2c(C)csc2C(=O)OC)c(=O)n1C [Example 32]
- activity against weeds (weeds [1]): very strong activity against weeds
- activity against weeds (weeds [2]): very strong activity against weeds
- degree of damage, Maize (Maize [3]; 60 g of ai./ha): 70%
- degree of damage, Digitaria (Digitaria; 60 g of ai./ha): 70%
- degree of damage, Echinochloa (Echinochloa; 60 g of ai./ha): 100%
- degree of damage, Lolium (Lolium [4]; 60 g of ai./ha): 70%
- degree of damage, Sorghum (Sorghum [5]; 60 g of ai./ha): 95%
- degree of damage, Amaranthus (Amaranthus; 60 g of ai./ha): 95%
- degree of damage, Gallium (Gallium; 60 g of ai./ha): 70%
- degree of damage, Matricaria (Matricaria [6]; 60 g of ai./ha): 80%
- degree of damage, Stellaria (Stellaria; 60 g of ai./ha): 90%
- degree of damage to the plants (% damage vs untreated control), Maize (Maize [7]): 20%
- degree of damage to the plants (% damage vs untreated control), Soya beans (Soya beans): 20%
- degree of damage to the plants (% damage vs untreated control), Lolium (Lolium [8]; 60 g of ai./ha): 95%
- degree of damage to the plants (% damage vs untreated control), Poa (Poa; 60 g of ai./ha): 95%
- degree of damage to the plants (% damage vs untreated control), Sorghum (Sorghum [9]; 60 g of ai./ha): 60%
- degree of damage to the plants (% damage vs untreated control), Ambrosia (Ambrosia; 60 g of ai./ha): 95%
- degree of damage to the plants (% damage vs untreated control), Matricaria (Matricaria [10]; 60 g of ai./ha): 95%
- degree of damage to the plants (% damage vs untreated control), Solanum (Solanum; 60 g of ai./ha): 95%

SMILES: COC(=O)c1cccc(C)c1S(=O)(=O)NC(=O)n1nc(SCCF)n(C2CC2)c1=O [Example 151]
- activity against weeds (weeds [1]): very strong activity against weeds
- activity against weeds (weeds [2]): very strong activity against weeds
- degree of damage, Maize (Maize [3]; 30 g of ai./ha): 60%
- degree of damage, Digitaria (Digitaria; 30 g of ai./ha): 90%
- degree of damage, Echinochloa (Echinochloa; 30 g of ai./ha): 70%
- degree of damage, Lolium (Lolium [4]; 30 g of ai./ha): 60%
- degree of damage, Sorghum (Sorghum [5]; 30 g of ai./ha): 90%
- degree of damage, Amaranthus (Amaranthus; 30 g of ai./ha): 95%
- degree of damage, Gallium (Gallium; 30 g of ai./ha): 90%
- degree of damage, Matricaria (Matricaria [6]; 30 g of ai./ha): 90%
- degree of damage, Stellaria (Stellaria; 30 g of ai./ha): 90%
- degree of damage to the plants (% damage vs untreated control), Maize (Maize [7]): 20%
- degree of damage to the plants (% damage vs untreated control), Soya beans (Soya beans): 10%
- degree of damage to the plants (% damage vs untreated control), Lolium (Lolium [8]; 15 g of ai./ha): 90%
- degree of damage to the plants (% damage vs untreated control), Poa (Poa; 15 g of ai./ha): 90%
- degree of damage to the plants (% damage vs untreated control), Sorghum (Sorghum [9]; 15 g of ai./ha): 50%
- degree of damage to the plants (% damage vs untreated control), Ambrosia (Ambrosia; 15 g of ai./ha): 80%
- degree of damage to the plants (% damage vs untreated control), Matricaria (Matricaria [10]; 15 g of ai./ha): 90%
- degree of damage to the plants (% damage vs untreated control), Solanum (Solanum; 15 g of ai./ha): 90%
